Target: T1, androgen receptor (AR) (Homo sapiens, UniProt P10275, T878A)
T1 construct: LNCaP cells express endogenous AR and secrete prostate-specific antigen (PSA); endogenous in cells; host or cells: LNCaP human prostate cancer cells
T1 sequence (P10275 1-920 T878A): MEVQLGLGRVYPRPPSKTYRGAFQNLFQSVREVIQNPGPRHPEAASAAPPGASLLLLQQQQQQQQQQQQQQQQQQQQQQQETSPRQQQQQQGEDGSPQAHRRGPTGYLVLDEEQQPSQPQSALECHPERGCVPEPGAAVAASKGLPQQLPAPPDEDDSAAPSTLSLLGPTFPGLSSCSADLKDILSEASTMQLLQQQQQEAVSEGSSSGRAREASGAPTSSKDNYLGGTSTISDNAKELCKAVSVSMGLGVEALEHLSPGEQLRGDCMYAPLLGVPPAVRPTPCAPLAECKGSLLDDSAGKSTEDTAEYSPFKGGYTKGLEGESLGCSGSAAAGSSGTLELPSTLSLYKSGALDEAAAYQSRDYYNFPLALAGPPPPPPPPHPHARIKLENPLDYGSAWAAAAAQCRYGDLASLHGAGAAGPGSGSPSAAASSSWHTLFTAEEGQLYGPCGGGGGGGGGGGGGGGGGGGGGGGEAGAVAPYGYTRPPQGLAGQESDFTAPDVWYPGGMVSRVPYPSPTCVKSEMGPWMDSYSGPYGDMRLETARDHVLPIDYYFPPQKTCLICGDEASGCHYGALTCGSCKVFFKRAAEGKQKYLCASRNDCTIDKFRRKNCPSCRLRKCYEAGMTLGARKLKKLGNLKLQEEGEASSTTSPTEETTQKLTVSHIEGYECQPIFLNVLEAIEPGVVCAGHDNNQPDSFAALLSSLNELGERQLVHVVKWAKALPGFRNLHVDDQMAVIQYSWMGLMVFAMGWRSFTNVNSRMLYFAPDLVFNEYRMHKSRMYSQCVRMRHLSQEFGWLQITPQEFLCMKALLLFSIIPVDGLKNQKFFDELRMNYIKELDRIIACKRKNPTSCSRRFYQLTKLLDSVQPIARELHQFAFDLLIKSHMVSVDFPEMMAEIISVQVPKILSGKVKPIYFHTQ
Test: LNCaP PSA (6.1 kb)-luciferase assay (R1881-induced)
Format: cell-based
Settings: for EXPERIMENTAL DATA (activity in the LNCaP PSA (6.1 kb)-luciferase assay): LNCaP cells transfected with PSA (6.1 kb)-luciferase, 1 h pre-treatment with compound, R1881 1 nM, 48 h; for androgen receptor inhibitory activity: LNCaP PSA (6.1 kb)-luciferase assay, dose response against DMSO and EPI-001 controls (FIGS. 1-6)
Text: LNCaP cells were employed initially for all experiments because they are well-differentiated human prostate cancer cells in which ligand-independent activation of the AR by FSK has been characterized (Nazareth et al 1996 J. Biol. Chem. 271, 19900-19907; and Sadar 1999 J. Biol. Chem. 274, 7777-7783). LNCaP cells express endogenous AR and secrete prostate-specific antigen (PSA) (Horoszewicz et al 1983 Cancer Res. 43, 1809-1818). LNCaP cells can be grown either as monolayers in cell culture or as tumors in the well-characterized xenograft model that progresses to androgen independence in castrated hosts (Sato et al 1996 J. Steroid Biochem. Mol. Biol. 58, 139-146; Gleave et al 1991 Cancer Res. 51, 3753-3761; Sato et al 1997 Cancer Res. 57, 1584-1589; and Sadar et al 2002 Mol. Cancer. Ther. 1(8), 629-637). […] Small molecules that specifically target the AR-NTD should have no effect on PC3 cells. This means that they should not alter the proliferation of PC3 cells if they specifically block the AR to mediate their inhibitory effects. R1881 was employed since it is stable and avoids problems associated with the labile physiological ligand dihydrotestosterone (DHT). Reporter specificity may be determined using several alternative reporter gene constructs. Some well characterized ARE-driven reporter gene constructs that have been used extensively are the PSA (6.1 kb) enhance/promoter which contains several AREs and is highly inducible by androgens as well as by FSK (Ueda et al 2002 A J. Biol. Chem. 277, 7076-7085) and the ARR3-thymidine kinase (tk)-luciferase, which is an artificial reporter construct that contains three tandem repeats of the rat probasin ARE1 and ARE2 regions upstream of a luciferase reporter (Snoek et al 1996 J. Steroid Biochem. Mol. Biol. 59, 243-250).
LNCaP cells were transiently cotransfected with PSA (6.1 kb)-luciferase (0.25 μg/well) in 24-well plates for 24 h prior to pre-treatment with compounds for 1 hour before the addition of synthetic androgen, R1881 (1 nM) to induce PSA production or vehicle. The total amount of plasmid DNA transfected was normalized to 0.75 μg/well by the addition of the empty vector. After 48 h of incubation with R1881, the cells were harvested, and relative luciferase activity was determined. Test compounds were added to the cells at various concentrations and activity for each treatment was normalized to the predicted maximal activity induction (in the absence of test compounds, vehicle only). Plotting of sigmoidal curves (Boltzmann Function) and IC50 calculations were done using OriginPro 8.1 Software (Northampton, Mass., USA).
Using the LNCaP PSA (6.1 kb)-luciferase assay described above, various compounds described herein were tested against DMSO and EPI-001 controls. In FIG. 1, a comparison is made between EPI-100, EPI-101, EPI-102 and DMSO from 1 to 35 μM. […] In FIG. 3A, EPI-107 is compared to DMSO and EPI-001 at 2.5 μM to 10 μM. In FIG. 3B, EPI-108 is compared to DMSO at 0.5 μM to 35 μM. In FIG. 4A, EPI-114 is compared to DMSO and EPI-001 at 5 μM and 10 μM. In FIG. 4B, EPI-116 is compared to DMSO and EPI-001 at 1 μM to 30 μM.

| Structure (SMILES) | EXPERIMENTAL DATA (activity in the LNCaP PSA (6.1 kb)-luciferase assay) | androgen receptor inhibitory activity |
| --- | --- | --- |
| CC(C)(c1ccc(OCC(O)CO)cc1)c1ccc(OCC(O)CCl)cc1 (centres unmarked) [reference compound] | Active (positive control) | – |
| C#CCOc1ccc(C(=O)c2ccc(OCC(O)CO)cc2)cc1 (stereo not drawn) [EPI-111] | – | showed androgen receptor inhibitory activity |
| OC(CCl)COc1ccc(Sc2ccc(OCC(O)CCl)cc2)cc1 (stereo not drawn) [EPI-400] | – | showed androgen receptor inhibitory activity |
| C#CCOc1ccc(C(=O)c2ccc(OCCCCl)cc2)cc1 [EPI-107] | – | showed androgen receptor inhibitory activity |
| OC(CCl)COc1ccc(-c2ccc(OCC(O)CCl)cc2)cc1 (stereo not drawn) [EPI-3000] | – | showed androgen receptor inhibitory activity |
| OC(CCl)COc1ccc(Oc2ccc(OCC(O)CCl)cc2)cc1 (centres unmarked) [drawing 513] | Active | – |
| C#CCOc1ccc(C(=O)c2ccc(OCCCCl)cc2)cc1 [drawing 506] | Active | – |
| O=C(c1ccc(OCC(O)CCl)cc1)c1ccc(OCC(O)CCl)cc1 (stereo not drawn) [EPI-114] | – | showed androgen receptor inhibitory activity |
| O=C(c1ccc(O)cc1)c1ccc(OCCCCl)cc1 [EPI-117] | – | showed androgen receptor inhibitory activity |
| O=C(c1ccc(OCC(O)CCl)cc1)c1ccc(OCC(O)CCl)cc1 (centres unmarked) [drawing 510] | Active | – |
| O=C(c1ccc(O)cc1)c1ccc(OCCCCl)cc1 [drawing 512] | Active | – |
| C#CCOc1ccc(C(=O)c2ccc(OCC#C)cc2)cc1 [EPI-109] | – | showed androgen receptor inhibitory activity |
| C#CCOc1ccc(C(=O)c2ccc(OCCCBr)cc2)cc1 [drawing 507] | Active | – |
| C#CCOc1ccc(C(=O)c2ccc(O)cc2)cc1 [EPI-106] | – | showed androgen receptor inhibitory activity |
| OC(CCl)COc1ccc(Oc2ccc(OCC(O)CCl)cc2)cc1 (stereo not drawn) [EPI-300] | – | showed androgen receptor inhibitory activity |
| C#CCOc1ccc(C(=O)c2ccc(OCC(O)CCl)cc2)cc1 (centres unmarked) | Active | – |
| C#CCOc1ccc(C(=O)c2ccc(OCCCBr)cc2)cc1 [EPI-108] | – | showed androgen receptor inhibitory activity |
| C#CCOc1ccc(C(=O)c2ccc(OCC(O)CO)cc2)cc1 (centres unmarked) [drawing 509] | Active | – |
| C#CCOc1ccc(C(=O)c2ccc(OC[C@H](O)CCl)cc2)cc1 | Active | – |
| C#CCOc1ccc(C(=O)c2ccc(OCC#C)cc2)cc1 [drawing 508] | Active | – |
| O=C(c1ccc(OCCCCl)cc1)c1ccc(OCCCCl)cc1 [EPI-116] | – | showed androgen receptor inhibitory activity |
| C#CCOc1ccc(C(=O)c2ccc(O)cc2)cc1 [drawing 505] | Active | – |
| C#CCOc1ccc(C(=O)c2ccc(OC[C@@H](O)CCl)cc2)cc1 | Active | – |
| OC(CCl)COc1ccc(Sc2ccc(OCC(O)CCl)cc2)cc1 (centres unmarked) [drawing 514] | Active | – |
| O=C(c1ccc(OCCCCl)cc1)c1ccc(OCCCCl)cc1 [drawing 511] | Active | – |
| OC(CCl)COc1ccc(-c2ccc(OCC(O)CCl)cc2)cc1 (centres unmarked) [drawing 515] | Active | – |
